{
  "source": "ChEMBL document CHEMBL6127040",
  "about": "“Discovery and optimization of isoliquiritigenin as a death-associated protein kinase 1 inhibitor” (Eur J Med Chem, 2024)",
  "target": "Death-associated protein kinase 1 (Homo sapiens, UniProt P53355)",
  "sequence (P53355 whole entry)": "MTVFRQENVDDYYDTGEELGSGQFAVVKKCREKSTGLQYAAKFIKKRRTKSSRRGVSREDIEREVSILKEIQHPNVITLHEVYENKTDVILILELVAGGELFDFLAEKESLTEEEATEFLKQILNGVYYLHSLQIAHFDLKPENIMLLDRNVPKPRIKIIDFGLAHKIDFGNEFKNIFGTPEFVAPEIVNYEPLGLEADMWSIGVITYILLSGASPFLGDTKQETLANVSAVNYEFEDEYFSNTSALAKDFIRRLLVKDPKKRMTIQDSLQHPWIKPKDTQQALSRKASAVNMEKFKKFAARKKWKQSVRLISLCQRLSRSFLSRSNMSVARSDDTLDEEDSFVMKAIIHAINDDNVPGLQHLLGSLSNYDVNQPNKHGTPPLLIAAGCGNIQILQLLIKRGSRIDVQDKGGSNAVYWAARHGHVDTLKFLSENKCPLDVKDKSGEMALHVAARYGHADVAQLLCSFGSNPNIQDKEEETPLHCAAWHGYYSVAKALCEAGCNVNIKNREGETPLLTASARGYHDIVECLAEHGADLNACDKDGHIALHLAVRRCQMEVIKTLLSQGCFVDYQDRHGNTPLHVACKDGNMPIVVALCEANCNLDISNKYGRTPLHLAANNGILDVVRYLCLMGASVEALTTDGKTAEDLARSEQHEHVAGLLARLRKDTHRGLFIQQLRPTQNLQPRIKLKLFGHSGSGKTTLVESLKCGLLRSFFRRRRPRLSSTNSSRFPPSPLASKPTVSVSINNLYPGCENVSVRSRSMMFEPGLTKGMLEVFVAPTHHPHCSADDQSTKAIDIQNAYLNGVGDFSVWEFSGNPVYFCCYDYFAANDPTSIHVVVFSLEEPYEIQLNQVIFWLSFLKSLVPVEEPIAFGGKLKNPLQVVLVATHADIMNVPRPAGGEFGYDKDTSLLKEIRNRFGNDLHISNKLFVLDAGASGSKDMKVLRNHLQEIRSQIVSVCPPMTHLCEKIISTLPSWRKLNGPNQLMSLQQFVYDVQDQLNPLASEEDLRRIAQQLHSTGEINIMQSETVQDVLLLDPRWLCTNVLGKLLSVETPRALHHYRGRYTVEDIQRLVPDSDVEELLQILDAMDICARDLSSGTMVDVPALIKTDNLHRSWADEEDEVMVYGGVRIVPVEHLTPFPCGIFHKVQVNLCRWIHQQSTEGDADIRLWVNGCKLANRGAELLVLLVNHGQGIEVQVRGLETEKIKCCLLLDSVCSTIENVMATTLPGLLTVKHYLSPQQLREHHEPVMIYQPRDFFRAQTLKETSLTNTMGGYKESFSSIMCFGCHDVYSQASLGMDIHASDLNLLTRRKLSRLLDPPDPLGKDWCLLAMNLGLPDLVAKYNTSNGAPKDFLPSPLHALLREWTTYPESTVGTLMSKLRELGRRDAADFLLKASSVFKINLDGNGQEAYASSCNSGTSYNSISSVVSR",
  "assay": "Binding affinity to DAPK1 (unknown origin) assessed as dissociation constant by ITC analysis",
  "data": [
    {"compound": "O=C(/C=C/c1ccc(O)cc1)c1ccc(O)cc1O", "note": "[ISOLIQUIRITIGENIN]", "values": [
      {"measurement": "Kd", "value": 2480, "unit": "nM"}
    ]}
  ]
}
